Measurements from paper PMC10981309, “Dual-targeting tigecycline nanoparticles for treating intracranial infections caused by multidrug-resistant Acinetobacter baumannii” (Journal of Nanobiotechnology, 2024).
≈ marks a conversion by molar mass, not a printed value.

Columns and labels:
[1] = In vitro drug release, dialysis method in PBS pH 7.4; format: physicochemical; settings: PBS pH 7.4, 37 °C
Method: An in vitro drug release study was conducted employing the dialysis method, with phosphate-buffered saline (PBS, pH = 7.4) as the release medium. For this study, 2 mL aliquots of free Tigecycline (TGC), CSs, or Aβ11/T80@CSs (each containing 1 mg of TGC) were sealed in dialysis bags with a molecular weight cutoff of 3.5 kDa. These bags were then immersed in 30 mL of PBS and gently agitated at 37 °C. At predetermined time intervals, 1.0 mL of PBS was sampled from outside each dialysis bag for HPLC analysis, and an equivalent volume of fresh PBS was replenished to maintain a constant volume in the release medium.

[2] = test system: bEnd.3 cells monolayer; assay: Transmembrane transport assay, in vitro BBB model; format: in vitro ADME; settings: bEnd.3 Transwell monolayer, apical to basolateral, TGC by HPLC
Method: An in vitro blood–brain barrier (BBB) model using bEnd.3 cells was developed to assess nanoparticle penetration. 2.0 × 10^5 cells were cultured in a Transwell chamber, achieving an intercellular compactness verified at 200 Ω·cm^2 transendothelial electrical resistance. […] Using Hank's Balanced Salt Solution, nanoparticles were added to the apical side and co-incubated. At intervals, 200 μL HBSS was sampled from the basolateral side for TGC concentration analysis via HPLC.

[3] = test system: multidrug-resistant A. baumannii; assay: Minimum inhibitory concentration, microbroth dilution; format: cell-based; settings: Acinetobacter baumannii; 1 × 10^5 CFU/mL, 24 h, OD 600 nm
Method: Mid-log phase bacteria, diluted to 1 × 10^5 CFU/mL, were mixed with these compounds (0.125–16 μg/mL) and incubated in 96-well plates for 24 h, with bacterial density measured at 600 nm. In a rat model, MDR A. baumannii was injected intracisternally (20 μL, 1 × 10^8 CFU/mL) into the CSF. […] CSF was collected after 24 h and cultured, with colony counts noted after 24 h at 37 °C.

[4] = Pharmacokinetics after intravenous injection; format: in vivo; settings: female, Sprague-Dawley, rat, rats, i.v. 12.5 mg/kg TGC, plasma
Method: In the pharmacokinetic study, adult female Sprague–Dawley rats, weighing between 200 and 250 g, were used. Prior to the experiment, the animals were fasted overnight with free access to water. […] Each group received an intravenous administration of TGC at a dose of 12.5 mg/kg via the tail vein. Blood samples were collected at predetermined time points (0.25, 0.5, 1, 2, 4, 6, and 8 h), and then placed into 2 mL Eppendorf tubes. These samples were centrifuged at 10,000 rpm for 10 min at 4 °C to separate the plasma. A portion of the plasma was mixed with methanol in a 1:4 volume ratio and further centrifuged at 13,000 rpm for 10 min at 4 °C. The supernatant was collected for TGC concentration determination using HPLC. Pharmacokinetic parameters were subsequently calculated using the statistical analysis tool DAS2.

[5] = Hemolysis assay; parameters: species or system rats; settings: rat; 2% erythrocyte suspension, 37 °C, three hours, relative to positive control (water); read-out: hemolysis rate
Method: The hemolytic activity of Aβ11/T80@CSs was assessed using erythrocytes from healthy rats. Blood samples were collected, and red blood cells were isolated through centrifugation, followed by suspension in normal saline to create a 2% erythrocyte solution. Two milliliters of this erythrocyte suspension were mixed with free TGC, CSs, or Aβ11/T80@CSs and incubated at 37 °C for three hours. Post-incubation, the samples were centrifuged, and the absorbance of the supernatant was measured using spectrophotometry at 570 nm. Purified water and normal saline served as positive and negative controls, respectively. The percentage of hemolysis was calculated using the following formula: Hemolysis%=Asample-Anegative/Apositive-Anegativ×100%

[6] = test system: bEnd.3 cells; assay: Cell cytotoxicity, MTT assay; format: cell-based; settings: 24-h incubation, across a range of TGC concentrations
[7] = Histological analysis (H&E) of heart, liver, spleen, lungs and kidneys; format: in vivo, rats; settings: compared to normal control group
Text: To further investigate the biosafety of the various formulations in vivo, blood samples were collected post-administration for biochemical analysis. After euthanizing the rats, their heart, liver, spleen, lung, and kidney tissues were harvested. These tissues underwent hematoxylin and eosin (H&E) staining and were subsequently imaged using a pathology slide scanner.

CN(C)c1cc(NC(=O)CNC(C)(C)C)c(O)c2c1C[C@H]1C[C@H]3[C@H](N(C)C)C(O)=C(C(N)=O)C(=O)[C@@]3(O)C(O)=C1C2=O [Free-TGC, Tigecycline]
time to complete release [1]: within three hours
permeability / transport capacity across in vitro BBB model [2]: lowest permeability
MIC [3]: 2 µg/mL (≈ 3.41 µM)
Cmax [4]: 3700 ± 620 ng/mL
Tmax [4]: 15 min
clearance [4]: 20 mL/min/kg
half-life [4]: 46.2 ± 14.4 min
AUC(0-t) ([4]; 0-8 h): 8480 ± 2900 ng·h/mL
MRT last ([4]; read-out: MRT(0-t)): 156 ± 9.6 min
hemolysis at 3 h [5]: < 5%
cell survival rate [6]: exceeded 80%
histopathology of heart, liver, spleen, lungs and kidneys [7]: no significant pathological alterations
